Structures can show the parent of a compound that is named as a salt. Where two headings read alike, the source gives them in different places.
Experiments:
[1] = Glass transition temperature (Tg) by modulated DSC; assay type: physicochemical; conditions: PLA/Drug mole/mole ratio 0 (drug alone)
Method: (§1) Thermal properties (glass transition, melting, and degradation points; Tg, Tm, Tdeg) were determined utilizing a modulated differential scanning calorimeter (DSC) TA Instruments, New Castle, Del. A linear heating rate of 5° C./minute was applied, with a perturbation amplitude of ±1° C. every 60 seconds. […] The glass transition temperatures (Tg) reported were taken at the midpoint in the change in heat capacity over the step transition, and were evaluated using the reversing signal curve.
It will also be recognized that other biologically acceptable molecules (e.g., excipients) which are not the active agent, may be added to improve the matrix material's properties.

[2] = Degradation temperature by modulated DSC (thermal stability)
Method: as §1
The salts were prepared by mixing suitable solutions (e.g., acetone, chloroform, methanol) of the drug and PLA in the desired ratio, followed by evaporation and extensive drying under high vacuum to remove all traces of solvent. […] Bioavailability frequently correlates with the water solubility of the drug-complex. The water solubility of the PHAs is dependent on the molecular weight and the nature of the end groups.
The molecular weight of the acylated polymer necessary to provide an insoluble salt is dependent both on the nature of the drug and the end-group used. It will be recognized that the characteristics (MW, distribution, chemical nature, endgroups, etc.) of the polymer counter-ion will be important to the ultimate pharmacokinetics of the drug.

[3] = test system: antigen (ovalalbumin) challenged guinea pigs; assay: Guinea pig early phase anaphylactic response test (pulmonary dynamic compliance); assay type: in vivo, male Hartley guinea pigs; conditions: inhalation
Method: Pat. […] Pat. […] Typical inhalation exposure systems were comprised of an aerosol generator, e.g., an MDI, a 150 ml aerosol expansion chamber, and a trachea cannula. Each guinea pig received 4 actuations containing 32 ug drug/actuation. The guinea pigs were antigen (ovalalbumin) challenged at varied times and pulmonary dynamic compliance was tested using a Buxco pulmonary mechanics analyzer (Buxco Electronics, Sharon Conn.) according to the method of Amdur and Mead (The American Journal of Physiology, Vol. 92, pp. 364-368 (1958)).

[4] = test system: tumor necrosis factor (TNF); assay: TNF levels in lung lavage and serum after inhalation of IMQ MDI formulations; assay type: in vivo, mouse; conditions: mice
Method: Typically, the animals were exposed to 20 actuations per minute for 25 minutes of an MDI generated 2 micron average MMAD aerosol. Lung lavage and bleeding of the exposed mice, were performed by standard methods known to those skilled in the art and tumor necrosis factor (TNF) analyses were performed by an ELISA method specific for TNF in the mouse (Genzyme Immunobiologicals, Cambridge, Mass.). TNF is a marker for this drug's activity. Pulmonary therapy application of IMQ prefers drug activity localized in the lung. Therefore, it was desirable to maintain high levels of drug in the lung and minimize systemic drug. However, this formulation and method could also clearly be used to provide long term release of IMQ or analogous compounds for systemic applications. The lavage numbers are measurements of TNF levels in the lung while the serum levels measure systemic TNF levels.

[5] = PLA/Drug molar ratio 0 (drug alone)

Which Tg [1] does the source give for `CC(C)(C)NCC(O)c1ccc(O)c(CO)c1` (stereo not drawn) [Albuterol base] here?
Its Tg is 48.9 °C.

With `[H]/N=C(\N/C(=N/[H])NCCCCCCNC(=N)NC(=N)Nc1ccc(Cl)cc1)Nc1ccc(Cl)cc1` [Chlorhexidine base] as the compound, how does the Tg [1] read?
Its Tg is 38.5 °C.

And the “Degradation Temperature” value [2, 5]?
The value was over 225 °C.

Which “Percent Inhibition of Bronchoconstriction” value (shortened to “Percent Inhibition”) ([3]; challenge 15 minutes after dosing) does the source give for `CCC(CC)N(O)C(=O)Nc1ccccc1` [Example 5LO] here?
Its value is 67%.

And the “Percent Inhibition” value ([3]; challenge 30 minutes after dosing)?
The value was 48%.

What about the “Percent Inhibition” value ([3]; challenge 60 minutes after dosing) of the same compound?
Its value is 4%.

With `Cc1nc2c(N)nc3ccccc3c2n1CC(C)(C)O` [IMQ alone] as the compound, how does the “TNF level, Lavage” value ([4]; 0 hours after dosing) read?
The value was 40 pg/mL.

And the “TNF level, Serum” value ([4]; 0 hours after dosing)?
The value was 13 pg/mL.

What about the “TNF level, Lavage” value ([4]; 1 hour after dosing) of the same compound?
The value was 105 pg/mL.

And the “TNF level, Serum” value ([4]; 1 hour after dosing)?
The value was 6 pg/mL.

And the “TNF level, Lavage” value ([4]; 2 hours after dosing)?
Its value is 213 pg/mL.

And the “TNF level, Serum” value ([4]; 2 hours after dosing)?
The value was 193 pg/mL.

What about the “TNF level, Lavage” value ([4]; 4 hours after dosing) of the same compound?
Its value is 144 pg/mL.

What about the “TNF level, Serum” value ([4]; 4 hours after dosing) of the same compound?
Its value is 577 pg/mL.

For `CCN(CC)CC(=O)Nc1c(C)cccc1C` [Lidocaine HCl], which Tg ([1]; HCl) is on record?
The Tg was 30.7 °C.

What does the source list for `CCN(CC)CC(=O)Nc1c(C)cccc1C` [Lidocaine]?
Tg [1]: none; Degradation Temperature [2, 5]: 159 °C

For `CN(C)[C@@H]1C(O)=C(C(N)=O)C(=O)[C@@]2(O)C(O)=C3C(=O)c4c(O)cccc4[C@@](C)(O)[C@H]3C[C@@H]12` [Tetracycline HCl], which Tg [1] is on record?
Its Tg is 50.5 °C.

For `CN(C)[C@@H]1C(O)=C(C(N)=O)C(=O)[C@@]2(O)C(O)=C3C(=O)c4c(O)cccc4[C@@](C)(O)[C@H]3C[C@@H]12` [Tetracycline], which “Degradation Temperature” value [2, 5] is on record?
The value was 179 °C.

For Albuterol sulfate, which Tg [1] is on record?
Its Tg is 49 °C.

For acetyl-poly (L-lactic acid) [Example 7], which “Degradation Temperature” value [2] is on record?
Its value is over 225 °C.

Reference: US7687054B2, “Biocompatible compounds for sustained release pharmaceutical drug delivery systems” (3M Innovative Properties Company, priority 1997, dated 2010)
